In patent US9260439B2, “Dihydropyrrolopyrimidine derivatives” (PFIZER INC., priority 2014, dated 2016):
Counter-ions that a name gives are not always drawn.

Target: truncated PI3Kα (p110α/iSH2 p85α) (Homo sapiens (Human), UniProt P42336)
Experiment: PI3KA_Act fluorescence polarization kinase assay (Ki)
Format: biochemical
Conditions: 1 mM ATP
Source text: 2) p110α-iSH2 p85α Complex (Full Length p110α and p85α iSH2)(“PI3KA_Act”)
Genes encoding for full length p110α and p85α nSH-iSH2=niSH2 (p85a aminoacids 322-600) subunits of PI3Kα complex were subcloned from existing constructs into pFASTBAC Dual vector (Life Technologies, Carlsbad, Calif.) using standard cloning procedures. Gene encoding p110α subunit was subcloned into polyhedrine promoter while gene encoding p85α niSH2 domains was subcloned into p10 promoter. Additionally, Human Rhinovirus 3C Protease (“HRV 3C”) site was introduced between nSH2 and iSH2, replacing aminoacids 431-438 of p85α with […] HRV 3C recognition sequence, using standard QuickChange mutagenesis protocol (Agilent Technologies, CA). Recombinant baculovirus was generated using Bac-to-Bac protocol (Life Technologies, Carlsbad, Calif.). Large scale expression was conducted in Sf21 (Life Technologies, Carlsbad, Calif.) cells at a multiplicity of infection (“MOI”)=1 for 48 hours. Cells were lyzed in 50 mM Tris pH 8.0, 250 mM NaCl, 5% glycerol, 0.25 mM TCEP, and 20 mM imidazole. The p110α-niSH2 p85α complex was purified from clarified supernatant using Immobilized Metalo Affinity Chromatography (“IMAC”). The protein was eluted from the column using 50 mM Tris pH 8.0, 200 mM NaCl, 0.25 mM TCEP, and 200 mM imidazole. Following elution p110α-niSH2 p85α complex was dialyzed against 4 liters of 50 mM Tris pH 8.0, 200 mM NaCl, 0.25 mM TCEP, and 40 mM imidazole in the presence of PreScission Protease (1:70 molar ratio of Protease to Protein) and TEV protease (1:40 molar ratio protease to protein) for 16 hours at 4° C. The protein was further purified using reverse IMAC to remove cleaved histidine tag and contaminants captured during initial IMAC purification. The mixture of p110α-iSH2 p85α complex and cleaved nSH2 was recovered in reverse IMAC 40 mM imidazole flow through and 60 mM imidazole wash fractions. Those fractions were pulled together and loaded on Superdex 200 26/60 SEC column equilibrated in 25 mM Tris, pH 8.0, 100 mM NaCl, 2% glycerol, and 2 mM TCEP. Following SEC, chromatography peak fractions containing p110α-iSH2 p85α complex were pulled and concentrated to 4.3 mg/mL. Purity and integrity of the complex was confirmed using LCMS, analytical SEC and SDS-PAGE (sodium dodecyl sulfate polyacrylamide gel electrophoresis) analysis.
The biochemical assays of kinase activity of full-length PI3Kα (full-length p110α/p85a) or truncated PI3Kα (p110α/iSH2 p85a) were conducted using a fluorescence polarization format similar to the procedure of Yuan J., et al., (2011) “PF-04691502, a Potent and Selective Oral Inhibitor of PI3K and mTOR Kinases with Antitumor Activity”, Mol Cancer Ther. 10, 2189-2199. The enzymatic reactions were conducted in 50 μL volumes in 96-well plates. The reactions contained human recombinant PI3Kα (2 nM full-length p110α/p85α or 0.5 nM p110α/iSH2 p85) and 30 μM phosphatidylinositol 4,5-bisphosphate (“PIP2”) (Cayman Chemical Company, Ann Arbor, Mich.) and were sonicated for 1 minute prior to adding PI3Kα enzyme (PI3KA_Act or PI3KA_FL), DMSO or test compound (12-point 3-fold serial dilution, 3 μM top dose, 2° A) DMSO final concentration), 5 mM MgCl2, 50 mM HEPES pH 7.4, 150 mM NaCl, 1 mM DTT ((2S,3S)-1,4-bis(sulfanyl)butane-2,3-diol), and 0.05% 3-[(3-cholamidopropyl)dimethylammonio]-1-propanesulfonate (“CHAPS”). […] The reactions were incubated for 30 min at room temperature, stopped with EDTA pH 8 (10 mM final concentration). In a detection plate, 15 μL of detector/probe mixture, containing 480 nM GST-Grp1 PH domain protein (University of Dundee, Dundee, UK) and 12 nM carboxytetramethylrhodamine (“TAMRA”)-tagged fluorescent phosphatidylinositol (3,4,5)-triphosphate (“PIP3”) (Echelon Biosciences, Inc., Salt Lake City, Utah) in assay buffer, was mixed with 15 μL of kinase reaction mixture. The plate was shaken for 30 minutes and fluorescence polarization values were measured on an LJL Analyst HT plate reader (Molecular Devices, Sunnyvale, Calif.). […]

Sequence of truncated PI3Kα (p110α/iSH2 p85α) (P42336 whole entry, the tested form may be a part): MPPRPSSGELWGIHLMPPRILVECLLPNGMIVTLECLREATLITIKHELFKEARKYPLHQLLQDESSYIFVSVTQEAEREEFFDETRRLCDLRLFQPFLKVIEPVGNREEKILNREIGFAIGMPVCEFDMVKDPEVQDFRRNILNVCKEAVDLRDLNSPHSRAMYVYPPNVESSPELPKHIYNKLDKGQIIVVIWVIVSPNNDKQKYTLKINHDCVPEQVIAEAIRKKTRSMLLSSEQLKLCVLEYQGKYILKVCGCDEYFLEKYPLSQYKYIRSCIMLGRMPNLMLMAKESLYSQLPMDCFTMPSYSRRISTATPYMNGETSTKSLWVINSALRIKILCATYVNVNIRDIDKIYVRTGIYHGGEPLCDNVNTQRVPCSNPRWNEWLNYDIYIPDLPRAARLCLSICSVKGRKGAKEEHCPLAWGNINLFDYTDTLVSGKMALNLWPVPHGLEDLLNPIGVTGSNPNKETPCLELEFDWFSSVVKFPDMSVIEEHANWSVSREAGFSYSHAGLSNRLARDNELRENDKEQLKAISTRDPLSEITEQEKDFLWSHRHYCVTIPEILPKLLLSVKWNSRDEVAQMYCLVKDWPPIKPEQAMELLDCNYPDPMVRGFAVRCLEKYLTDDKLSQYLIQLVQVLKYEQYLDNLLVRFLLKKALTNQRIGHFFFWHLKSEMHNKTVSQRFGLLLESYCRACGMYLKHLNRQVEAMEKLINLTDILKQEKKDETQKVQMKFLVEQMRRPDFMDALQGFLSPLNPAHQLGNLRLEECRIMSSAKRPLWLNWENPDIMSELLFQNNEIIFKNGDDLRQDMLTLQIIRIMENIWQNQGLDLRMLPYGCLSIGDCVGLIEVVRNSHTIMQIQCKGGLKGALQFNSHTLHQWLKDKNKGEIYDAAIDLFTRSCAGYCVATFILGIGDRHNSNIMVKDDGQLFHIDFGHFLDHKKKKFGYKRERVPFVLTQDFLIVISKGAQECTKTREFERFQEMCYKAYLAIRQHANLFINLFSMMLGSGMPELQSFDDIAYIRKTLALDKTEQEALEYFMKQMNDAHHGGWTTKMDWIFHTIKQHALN

CCC(=O)NCC(=O)N1CC(N2CCc3c(-c4cnc(N)nc4)nc(N4CCOC[C@@H]4C)nc32)C1 [Example 457, N-[2-(3-{4-(2-aminopyrimidin-5-yl)-2-[(3S)-3-methylmorpholin-4-yl]-5,6-dihydro-7H-pyrrolo[2,3-d]pyrimidin-7-yl}azetidin-1-yl)-2-oxoethyl]propanamide] and CC(C)C(=O)NCC(=O)N1CC(N2CCc3c(-c4cnc(N)nc4)nc(N4CCOC[C@@H]4C)nc32)C1 [Example 212] are within 1.5-fold of each other in “PI3KA_Act Ki” value: 0.691 nM for the first, 0.534 nM for the second.

COC(=O)N1CC[C@](C)(N2CCc3c(-c4cnc(N)nc4)nc(N4CCOCC4)nc32)C1 [Example 213] and C[C@]1(N2CCc3c(-c4cnc(N)nc4)nc(N4CCOCC4)nc32)CCN(C(=O)[C@@H]2C[C@@H]2F)C1 [Example 334, {(3S)-3-[4-(2-aminopyrimidin-5-yl)-2-(morpholin-4-yl)-5,6-dihydro-7H-pyrrolo[2,3-d]pyrimidin-7-yl]-3-methylpyrrolidin-1-yl}[(1S,2S)-2-fluorocyclopropyl] methanone] are within 1.5-fold of each other in “PI3KA_Act Ki” value: 0.030 nM for the first, 0.021 nM for the second.

Compared with C[C@H]1COCCN1c1nc(-c2cnc(N)nc2)c2c(n1)N([C@@]1(C)CCN(C(=O)[C@@H]3CCOC3)C1)CC2 [Example 499, [(3S)-3-{4-(2-aminopyrimidin-5-yl)-2-[(3S)-3-methylmorpholin-4-yl]-5,6-dihydro-7H-pyrrolo[2,3-d]pyrimidin-7-yl}-3-methylpyrrolidin-1-yl][(3R)-tetrahydrofuran-3-yl]methanone], C[C@H]1COCCN1c1nc(-c2cnc(N)nc2)c2c(n1)N([C@@]1(C)CCN(C(=O)[C@]3(C)CCN3)C1)CC2.Cl [Example 495, [(3S)-3-{4-(2-aminopyrimidin-5-yl)-2-[(3S)-3-methylmorpholin-4-yl]-5,6-dihydro-7H-pyrrolo[2,3-d]pyrimidin-7-yl}-3-methylpyrrolidin-1-yl][(2S)-2-methylazetidin-2-yl]methanone hydrochloride] is 1.5-fold lower in “PI3KA_Act Ki” value: 0.048 nM for the first, 0.031 nM for the second.

Going from C[C@H]1COCCN1c1nc(-c2cnc(N)nc2)c2c(n1)N(C1CN(S(=O)(=O)c3cn(C)cn3)C1)CC2 [Example 154] to C[C@@H]1COCCN1c1nc(-c2cnc(N)nc2)c2c(n1)N([C@@]1(C)CCN(S(C)(=O)=O)C1)CC2 [Example 231], the “PI3KA_Act Ki” value rises from 0.286 nM to 1.493 nM (5.2-fold).

CC(C)(N)CC(=O)N1CC[C@](C)(N2CCc3c(-c4cnc(N)nc4)nc(N4CCOCC4)nc32)C1.Cl [Example 281, 3-amino-1-{(3S)-3-[4-(2-aminopyrimidin-5-yl)-2-(morpholin-4-yl)-5,6-dihydro-7H-pyrrolo[2,3-d]pyrimidin-7-yl]-3-methylpyrrolidin-1-yl}-3-methylbutan-1-one hydrochloride] and C[C@]1(N2CCc3c(-c4cnc(N)nc4)nc(N4CCOCC4)nc32)CCN(C(=O)[C@H](N)C2CC2)C1.Cl [Example 297, (2R)-2-amino-1-{(3S)-3-[4-(2-aminopyrimidin-5-yl)-2-(morpholin-4-yl)-5,6-dihydro-7H-pyrrolo[2,3-d]pyrimidin-7-yl]-3-methylpyrrolidin-1-yl}-2-cyclopropylethanone hydrochloride] are within 1.5-fold of each other in “PI3KA_Act Ki” value: 0.024 nM for the first, 0.019 nM for the second.

CC1(C)CN[C@@H]1C(=O)N1CC[C@](C)(N2CCc3c(-c4cnc(N)nc4)nc(N4CCOCC4)nc32)C1.Cl [Example 362, {(3S)-3-[4-(2-aminopyrimidin-5-yl)-2-(morpholin-4-yl)-5,6-dihydro-7H-pyrrolo[2,3-d]pyrimidin-7-yl]-3-methylpyrrolidin-1-yl}[(2S)-3,3-dimethylazetidin-2-yl]methanone hydrochloride] and C[C@]1(N2CCc3c(-c4cnc(N)nc4)nc(N4CCOCC4)nc32)CCN(C(=O)[C@H]2CCC(=O)N2)C1 [Example 379, (5R)-5-({(3S)-3-[4-(2-aminopyrimidin-5-yl)-2-(morpholin-4-yl)-5,6-dihydro-7H-pyrrolo[2,3-d]pyrimidin-7-yl]-3-methylpyrrolidin-1-yl}carbonyl)pyrrolidin-2-one] are within 1.5-fold of each other in “PI3KA_Act Ki” value: 0.041 nM for the first, 0.061 nM for the second.

First: C[C@H]1COCCN1c1nc(-c2cnc(N)nc2)c2c(n1)N([C@H]1[C@@H]3CN(C(=O)OC(C)(C)C)C[C@@H]31)CC2 [Example 521, tert-butyl (1R,5S,6s)-6-{4-(2-aminopyrimidin-5-yl)-2-[(3S)-3-methylmorpholin-4-yl]-5,6-dihydro-7H-pyrrolo[2,3-d]pyrimidin-7-yl}-3-azabicyclo[3.1.0]hexane-3-carboxylate]
Second: C[C@H]1COCCN1c1nc(-c2cnc(N)nc2)c2c(n1)N(C1(C)CCCN(C(=O)OC(C)(C)C)C1)CC2 (stereo partly drawn) [Example 520, tert-butyl 3-{4-(2-aminopyrimidin-5-yl)-2-[(3S)-3-methylmorpholin-4-yl]-5,6-dihydro-7H-pyrrolo[2,3-d]pyrimidin-7-yl}-3-methylpiperidine-1-carboxylate]
The “PI3KA_Act Ki” value of the first is 3.9-fold lower: 0.170 nM for the first, 0.663 nM for the second.

First: CCC(C)(C)N1CCc2c(-c3cnc(N)nc3)nc(N3CCOCC3)nc21 [Example 184]
Second: C[C@]1(N2CCc3c(-c4cnc(N)nc4)nc(N4CCOCC4)nc32)CCNC1=O [Example 258, (3S)-3-[4-(2-aminopyrimidin-5-yl)-2-(morpholin-4-yl)-5,6-dihydro-7H-pyrrolo[2,3-d]pyrimidin-7-yl]-3-methylpyrrolidin-2-one]
The “PI3KA_Act Ki” value of the first is 49-fold lower: 0.647 nM for the first, 31.787 nM for the second.

In the case of C[C@]1(N2CCc3c(-c4cnc(N)nc4)nc(N4CCOCC4)nc32)CCN(C(=O)N2CC(O)C2)C1 [Example 366, {(3S)-3-[4-(2-aminopyrimidin-5-yl)-2-(morpholin-4-yl)-5,6-dihydro-7H-pyrrolo[2,3-d]pyrimidin-7-yl]-3-methylpyrrolidin-1-yl}(3-hydroxyazetidin-1-yl)methanone], the “PI3KA_Act Ki” value is reported as 0.021 nM.

Going from C[C@H]1COCCN1c1nc(-c2cnc(N)nc2)c2c(n1)N([C@@H]1[C@@H]3C[C@H]1N(C(=O)OC(C)(C)C)C3)CC2 [Example 524, tert-butyl (1R,4R,5R)-5-{4-(2-aminopyrimidin-5-yl)-2-[(3S)-3-methylmorpholin-4-yl]-5,6-dihydro-7H-pyrrolo[2,3-d]pyrimidin-7-yl}-2-azabicyclo[2.1.1]hexane-2-carboxylate] to [2H]C1([2H])OC([2H])([2H])C([2H])([2H])N(c2nc(-c3cnc(N)nc3)c3c(n2)N([C@@]2(C)CCN(C(=O)C(C)(C)NC(=O)OC(C)(C)C)C2)CC3)C1([2H])[2H] [Example 235], the Ki falls from 1.87 nM to 0.693 nM (2.7-fold). The second binds more tightly here.

With C[C@]1(N2CCc3c(-c4cnc(N)nc4)nc(N4CCOCC4)nc32)CCN(C(=O)N2CCC2)C1 [Example 360, {(3S)-3-[4-(2-aminopyrimidin-5-yl)-2-(morpholin-4-yl)-5,6-dihydro-7H-pyrrolo[2,3-d]pyrimidin-7-yl]-3-methylpyrrolidin-1-yl}(azetidin-1-yl)methanone] the “PI3KA_Act Ki” value was less than 0.018 nM.

Same assay, conditions: 1 mM ATP, hydrochloride

With C[C@H]1COCCN1c1nc(-c2cnc(N)nc2)c2c(n1)N([C@@]1(C)CCN(C(=O)C3(N)CCOC3)C1)CC2 (single isomer, unassigned) [Example 503, hydrochloride] the “PI3KA_Act Ki” value was 0.091 nM.
